The target in one data set is T1, FAAH (Homo sapiens, UniProt O00519).
T1 construct: Reactions were initiated by adding 12.5 μg of brain microsome; tissue ABS, Inc; host or cells: human brain cerebral cortex, membrane/microsome fraction pooled from 3 donors
T1 sequence (O00519 1-579): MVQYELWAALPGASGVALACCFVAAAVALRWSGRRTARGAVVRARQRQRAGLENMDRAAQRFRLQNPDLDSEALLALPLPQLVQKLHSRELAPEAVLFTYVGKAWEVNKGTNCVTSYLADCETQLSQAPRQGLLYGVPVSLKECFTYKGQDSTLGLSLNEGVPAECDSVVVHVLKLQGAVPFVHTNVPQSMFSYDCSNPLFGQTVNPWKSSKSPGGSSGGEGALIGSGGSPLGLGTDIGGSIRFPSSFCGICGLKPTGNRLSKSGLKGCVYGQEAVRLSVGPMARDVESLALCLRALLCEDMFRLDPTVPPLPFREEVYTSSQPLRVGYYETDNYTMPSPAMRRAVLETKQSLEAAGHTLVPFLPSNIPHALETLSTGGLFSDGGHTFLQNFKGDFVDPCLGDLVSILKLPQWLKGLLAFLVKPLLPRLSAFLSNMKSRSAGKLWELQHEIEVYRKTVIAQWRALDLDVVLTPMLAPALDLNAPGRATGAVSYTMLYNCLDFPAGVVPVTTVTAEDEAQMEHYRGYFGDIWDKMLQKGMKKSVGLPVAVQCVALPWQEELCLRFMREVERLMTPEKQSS
The data set is described as follows: FAAH inhibition, human brain membrane homogenate assay. The class given is biochemical. The following applies: human brain homogenate; average activity; read-out: Human brain Extract FAAH IC50.

A further data set deals with T2, hERG channel (Homo sapiens, UniProt Q12809).
T2 construct: expressed in transfected cells; host or cells: CHO (hERG-CHO), under Geneticin selection
T2 sequence (Q12809 whole entry): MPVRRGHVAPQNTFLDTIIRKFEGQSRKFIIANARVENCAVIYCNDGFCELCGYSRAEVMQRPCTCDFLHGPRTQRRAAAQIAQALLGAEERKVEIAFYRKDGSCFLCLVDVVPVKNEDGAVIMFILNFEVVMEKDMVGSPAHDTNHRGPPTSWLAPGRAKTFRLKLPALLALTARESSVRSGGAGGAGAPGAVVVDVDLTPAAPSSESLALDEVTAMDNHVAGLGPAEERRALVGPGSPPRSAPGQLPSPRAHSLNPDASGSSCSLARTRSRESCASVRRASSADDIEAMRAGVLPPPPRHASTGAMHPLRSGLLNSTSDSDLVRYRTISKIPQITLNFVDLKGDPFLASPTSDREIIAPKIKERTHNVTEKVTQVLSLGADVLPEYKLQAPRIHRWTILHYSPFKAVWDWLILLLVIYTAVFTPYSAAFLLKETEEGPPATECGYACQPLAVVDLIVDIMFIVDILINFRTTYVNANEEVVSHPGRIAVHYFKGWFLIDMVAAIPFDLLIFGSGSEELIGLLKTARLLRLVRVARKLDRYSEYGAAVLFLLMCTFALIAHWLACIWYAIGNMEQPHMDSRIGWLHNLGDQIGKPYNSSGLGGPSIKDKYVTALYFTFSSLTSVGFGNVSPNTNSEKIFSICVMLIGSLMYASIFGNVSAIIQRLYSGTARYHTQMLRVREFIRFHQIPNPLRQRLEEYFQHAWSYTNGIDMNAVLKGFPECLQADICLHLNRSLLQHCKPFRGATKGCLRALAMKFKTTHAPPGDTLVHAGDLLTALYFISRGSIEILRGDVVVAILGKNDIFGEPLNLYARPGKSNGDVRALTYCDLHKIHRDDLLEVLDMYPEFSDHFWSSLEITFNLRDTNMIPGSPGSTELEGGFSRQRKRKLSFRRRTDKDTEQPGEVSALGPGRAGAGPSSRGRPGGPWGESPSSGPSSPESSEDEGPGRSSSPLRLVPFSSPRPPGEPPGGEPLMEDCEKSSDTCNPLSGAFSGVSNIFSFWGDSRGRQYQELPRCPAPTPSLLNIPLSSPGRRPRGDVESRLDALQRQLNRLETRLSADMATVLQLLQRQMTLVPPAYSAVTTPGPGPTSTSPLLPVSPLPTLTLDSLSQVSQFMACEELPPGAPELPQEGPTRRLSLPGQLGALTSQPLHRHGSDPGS
Kind of data set: hERG channel inhibition, automated patch clamp (IonWorks HT, hERG-CHO). The following applies: CHO cells expressing hERG, 600 s incubation; for inhibition at 600 s, 1 µM: 1 μM compound, read-out: hERG Channel Inhibition % (at 1 μM), vehicle-subtracted values; for inhibition at 600 s, 10 µM: 10 μM compound, read-out: hERG Channel Inhibition % (at 10 μM), vehicle-subtracted values. In kind it is cell-based. How it is done:
Human ether-a-gogo-related (hERG) ion channel encodes the inward rectifying voltage gated potassium channel in the heart and has a major role during the repolarization of the cardiac action potential. It is well established that blockade of this ion channel can lead to potentially lethal arrhythmias. hERG pre-clinical safety data is often used by regulatory agencies in elucidate the toxicity profile of certain compositions. The disclosed compounds of Table 1 were tested for their ability to inhibit hERG ion channels.
Media components include F12 Nutrient Mixture (Ham) with GlutaMAX™ (Invitrogen, Cat#31765), Fetal Bovine Serum, Certified (Invitrogen, Cat#16000-044—not heat activated), and Geneticin® Selective Antibiotic (Invitrogen, Cat#10131-027).
One vial of frozen cells, at 1.62×10^6 cells are thawed into a T150 flask (BD Falcon 355001) with 40 mL of pre-warmed complete media. Cells are cultured at 37° C., 5% CO2 for four hours prior to gently changing media. 99% of cells appear attached at this time point.
The flask is media changed at 24 hours post-thaw, the cells are imaged, media changed, and returned to the incubator. At this point, the cells appear healthy and about 25% confluent in the flask. Cells are typically passed 24-48 hours after thaw according to the following intervals and densities below. Cells are incubated at 30° C. for 48 hours prior to assay.
Using an automated patch clamp apparatus (IonWorks^HT), a three pulse protocol was applied by stepping from a holding potential of −80 mV to […] for 2 s, to activate hERG channels. The membrane voltage was then stepped back to −50 mV for 2 s to evoke a tail current prior to returning to the holding potential for 1 s. This sequence was repeated a further two times. This voltage protocol was applied prior to drug (Pre compound) and after 600 s in the presence of drug (Post compound).
The amplitude of the hERG tail current was calculated by measuring the difference between the maximum current on stepping to −50 mV of the third pulse (i.e. peak of the outward hERG tail current) and the current measured immediately prior to activation of any hERG current. This parameter was assessed before (pre tail current amplitude) and after 600 s incubation (post tail current amplitude) in drug. In order to assess the amount of block produced by test compounds, the data was first filtered using the IonWorks™ software to exclude any cells where the seal resistance was less than 50 MOhm. The remaining data was then exported to an excel compatible data file and only currents with tail currents greater than 250 pA were analyzed. The post/pre tail current amplitude ratio for the third pulse was calculated for each drug and control, and presented as percent inhibition.
On the technique in general: The hERG channel carries a current that helps repolarise heart muscle cells.

The record followed here is US20150175599A1, “FAAH Inhibitors” (Ironwood Pharmaceuticals, Inc., priority 2010, published 2015).

In the case of `COc1ccc2c(C(=O)C(=O)Nc3ccnc(OC)c3)c(C)n(Cc3ccc(Cl)cc3)c2c1` [Compound 48, 2-(1-(4-chlorobenzyl)-6-methoxy-2-methyl-1H-indol-3-yl)-N-(2-methoxypyridin-4-yl)-2-oxoacetamide], the IC50 on FAAH is less than 100 nM. Further, on hERG channel, the inhibition at 600 s, 1 µM is less than 25% and the inhibition at 600 s, 10 µM was less than 25%.

As to `COc1cc(NC(=O)C(=O)c2c(C)n(Cc3ccc(Cl)cc3)c3c(OC)cccc23)ccn1` [Compound 51, 2-(1-(4-chlorobenzyl)-7-methoxy-2-methyl-1H-indol-3-yl)-N-(2-methoxypyridin-4-yl)-2-oxoacetamide], the half-inhibitory concentration (IC50) on FAAH lay within 100 to 1000 nM. On hERG channel, the inhibition at 600 s, 1 µM is less than 25% and the inhibition at 600 s, 10 µM was less than 25%.

On to `COc1ccc2c(c1)c(C(=O)C(=O)Nc1ccnc(OC)c1Cl)c(C)n2Cc1ccc(Cl)cc1` [Compound 52, N-(3-chloro-2-methoxypyridin-4-yl)-2-(1-(4-chlorobenzyl)-5-methoxy-2-methyl-1H-indol-3-yl)-2-oxoacetamide], for which the IC50 at FAAH is greater than 10000 nM. Moreover, on hERG channel, the inhibition at 600 s, 1 µM is less than 25% and the inhibition at 600 s, 10 µM is less than 25%.

`COc1ccc2c(c1)c(C(=O)C(=O)Nc1ccnc(OC)c1F)c(C)n2Cc1ccc(Cl)cc1` [Compound 53, 2-(1-(4-chlorobenzyl)-5-methoxy-2-methyl-1H-indol-3-yl)-N-(3-fluoro-2-methoxypyridin-4-yl)-2-oxoacetamide]: on FAAH, the IC50 is 100 to 1000 nM. Besides, at hERG channel, the inhibition at 600 s, 1 µM is less than 25% and the inhibition at 600 s, 10 µM is less than 25%.

For the molecule `COc1ccc2c(c1)c(C(=O)C(=O)Nc1cc(OC)ncc1F)c(C)n2Cc1ccc(Cl)cc1` [Compound 54, 2-(1-(4-chlorobenzyl)-5-methoxy-2-methyl-1H-indol-3-yl)-N-(5-fluoro-2-methoxypyridin-4-yl)-2-oxoacetamide], the IC50 at FAAH is less than 100 nM. Also, on hERG channel, the inhibition at 600 s, 1 µM was less than 25% and the inhibition at 600 s, 10 µM is less than 25%.

Turning to `COc1cc(NC(=O)C(=O)c2c(C)n(Cc3ccc(Cl)cc3)c3cc(Cl)c(OC)cc23)ccn1` [Compound 55, 2-(6-chloro-1-(4-chlorobenzyl)-5-methoxy-2-methyl-1H-indol-3-yl)-N-(2-methoxypyridin-4-yl)-2-oxoacetamide], the IC50 on FAAH was less than 100 nM. Moreover, at hERG channel, the inhibition at 600 s, 1 µM is less than 25% and the inhibition at 600 s, 10 µM was less than 25%.

For the molecule `COc1cc(NC(=O)C(=O)c2c(C)n(Cc3ccc(Cl)cc3)c3ccc(OC)c(F)c23)ccn1` [Compound 59, 2-(1-(4-chlorobenzyl)-4-fluoro-5-methoxy-2-methyl-1H-indol-3-yl)-N-(2-methoxypyridin-4-yl)-2-oxoacetamide], the IC50 at FAAH is less than 100 nM. Further, at hERG channel, the inhibition at 600 s, 1 µM was less than 25% and the inhibition at 600 s, 10 µM was in the range of 25 to 50%.

On to `COc1cc(NC(=O)C(=O)c2c(C)n(Cc3ccc(Cl)cn3)c3cc(Cl)c(OC)cc23)ccn1` [Compound 60, 2-(6-chloro-1-((5-chloropyridin-2-yl)methyl)-5-methoxy-2-methyl-1H-indol-3-yl)-N-(2-methoxypyridin-4-yl)-2-oxoacetamide], for which the IC50 at FAAH is less than 100 nM. Besides, at hERG channel, the inhibition at 600 s, 1 µM was less than 25% and the inhibition at 600 s, 10 µM lay within 25 to 50%.

On to `COc1cc(NC(=O)C(=O)c2c(C)n(Cc3ccc(Cl)cn3)c3ccc(C)cc23)ccn1` [Compound 61, 2-(1-((5-chloropyridin-2-yl)methyl)-2,5-dimethyl-1H-indol-3-yl)-N-(2-methoxypyridin-4-yl)-2-oxoacetamide], for which the IC50 at FAAH is less than 100 nM. On hERG channel, the inhibition at 600 s, 1 µM was 25 to 50% and the inhibition at 600 s, 10 µM was 50 to 75%.

As to `COc1cc(NC(=O)C(=O)c2c(C)n(Cc3ccc(Cl)cn3)c3ccc(Cl)cc23)ccn1` [Compound 63, 2-(5-chloro-1-((5-chloropyridin-2-yl)methyl)-2-methyl-1H-indol-3-yl)-N-(2-methoxypyridin-4-yl)-2-oxoacetamide], at FAAH, the IC50 was less than 100 nM. Moreover, on hERG channel, the inhibition at 600 s, 1 µM is less than 25% and the inhibition at 600 s, 10 µM is 50 to 75%.

Consider `COc1cc(NC(=O)C(=O)c2c(C)n(Cc3ccc(Cl)cn3)c3cc(F)c(OC)cc23)ccn1` [Compound 64, 2-(1-((5-chloropyridin-2-yl)methyl)-6-fluoro-5-methoxy-2-methyl-1H-indol-3-yl)-N-(2-methoxypyridin-4-yl)-2-oxoacetamide], for which the IC50 at FAAH is less than 100 nM. At hERG channel, the inhibition at 600 s, 1 µM was less than 25% and the inhibition at 600 s, 10 µM is 25 to 50%.

As to `COc1cc(NC(=O)C(=O)c2c(C)n(Cc3ccc(Cl)cn3)c3cc(OC)c(Cl)cc23)ccn1` [Compound 67, 2-(5-chloro-1-((5-chloropyridin-2-yl)methyl)-6-methoxy-2-methyl-1H-indol-3-yl)-N-(2-methoxypyridin-4-yl)-2-oxoacetamide], at FAAH, the IC50 is less than 100 nM. Moreover, at hERG channel, the inhibition at 600 s, 1 µM was less than 25% and the inhibition at 600 s, 10 µM was less than 25%.

For `COc1cc(NC(=O)C(=O)c2c(C)n(Cc3ccc(Cl)cn3)c3ccccc23)ccn1` [Compound 68, 2-(1-((5-chloropyridin-2-yl)methyl)-2-methyl-1H-indol-3-yl)-N-(2-methoxypyridin-4-yl)-2-oxoacetamide], the IC50 at FAAH is less than 100 nM. In addition, on hERG channel, the inhibition at 600 s, 1 µM was less than 25% and the inhibition at 600 s, 10 µM was less than 25%.

Regarding `COc1ccc(Cn2c(C)c(C(=O)C(=O)Nc3ccnc(OC)c3)c3cc(C)ccc32)nc1` [Compound 69, 2-(1-((5-methoxypyridin-2-yl)methyl)-2,5-dimethyl-1H-indol-3-yl)-N-(2-methoxypyridin-4-yl)-2-oxoacetamide], the IC50 at FAAH was less than 100 nM. Also, on hERG channel, the inhibition at 600 s, 1 µM is less than 25% and the inhibition at 600 s, 10 µM was less than 25%.

Take `COc1cc(NC(=O)C(=O)c2c(C)n(Cc3ncc(Cl)cc3Cl)c3cc(Cl)c(OC)cc23)ccn1` [Compound 70, 2-(6-chloro-1-((3,5-dichloropyridin-2-yl)methyl)-5-methoxy-2-methyl-1H-indol-3-yl)-N-(2-methoxypyridin-4-yl)-2-oxoacetamide]: the IC50 on FAAH is less than 100 nM. For the same molecule, on hERG channel, the inhibition at 600 s, 1 µM is less than 25% and the inhibition at 600 s, 10 µM is less than 25%.

For `Cc1c(C(=O)C(=O)Nc2cccc(Cl)c2)c2cc(O)ccc2n1Cc1ccc(Cl)cc1` [Compound 71, 2-(1-(4-chlorobenzyl)-5-hydroxy-2-methyl-1H-indol-3-yl)-N-(3-chlorophenyl)-2-oxoacetamide], the IC50 on FAAH was less than 100 nM. At hERG channel, the inhibition at 600 s, 1 µM is less than 25% and the inhibition at 600 s, 10 µM was less than 25%.

Regarding `COc1cc(NC(=O)C(=O)c2c(C)n(Cc3ccc(Cl)cc3)c3cc(F)c(OC)cc23)ccn1` [Compound 72, 2-(1-(4-chlorobenzyl)-6-fluoro-5-methoxy-2-methyl-1H-indol-3-yl)-N-(2-methoxypyridin-4-yl)-2-oxoacetamide], at FAAH, the IC50 was less than 100 nM. Moreover, at hERG channel, the inhibition at 600 s, 1 µM was less than 25% and the inhibition at 600 s, 10 µM lay in the range of 25 to 50%.

`COc1ccc2c(c1)c(C(=O)C(=O)Nc1ccnc(OC)c1)c(C)n2Cc1ccccn1` [Compound 77, 2-(5-methoxy-2-methyl-1-(pyridin-2-ylmethyl)-1H-indol-3-yl)-N-(2-methoxypyridin-4-yl)-2-oxoacetamide]: the IC50 at FAAH fell in the range of 100 to 1000 nM. Moreover, at hERG channel, the inhibition at 600 s, 1 µM is less than 25% and the inhibition at 600 s, 10 µM was less than 25%.

Broadly, the IC50 is the concentration that gives 50% inhibition. One may read the inhibition as the change of the read-out against control, counted positive when it falls.
